Data reported in patent US11591322B2, “Certain chemical compositions and methods of use thereof” (Algen Biotechnologies, Inc., priority 2020, dated 2023).

What was measured:
[1] = target: CDK9/CyclinT (Homo sapiens (Human), UniProt P50750); test: CDK9 biochemical assay (Kinase-Glo Max luminescence); conditions: 30° C. for 45 minutes
Procedure: To each well of a 96-well plate was added 5× kinase assay buffer with 10 mM DTT (6 μL), 500 μM ATP (1 μL), 5×CDK substrate (10 μL), and water (8 μL). 5 μL of compound were added to the test and positive control groups, while 5 μL of solvent was added to the blank groups. 100 ng of CDK9/CyclinT in 20 μL water was added to the test and positive control groups, while 20 μL of 1× kinase assay buffer was added to the blank groups. The reaction mixtures were incubated at 30° C. for 45 minutes, and 50 μL of Kinase-Glo® Max was added to each well and the plates were shielded from light and incubated for 15 minutes at room temperature. Luminescence was measured on a microplate reader and IC50 values were calculated using Prism 9 software.

[2] = test system: HepG2 cells; test: Cancer cell viability assay (CellTiter-Glo 2.0), HepG2; assay type: cell-based, Human; conditions: HepG2, 72 hours compound treatment
Procedure: (§1) Human liver cancer cell lines HepG2, Hep3B, Huh7, and SK-HEP-1 cells were rinsed and trypsinized with 0.25% trypsin (Corning #25-053-CI) in an incubator at 37° C. until detached. The cells were resuspended and seeded in 96-well plates to a density of 5,000 cells per well. Following cell adhesion, compounds were added to a final concentration of 2× dilution. 72 hours following compound treatment, CellTiter-Glo® 2.0 was added to the well in a 2:1 ratio of media/CellTiter-Glo® 2.0. The plates were shielded from light, shaken for 2 minutes, and incubated for 10 minutes. Luminescence was measured on a microplate reader and EC50 values were calculated using Prism 9 software.

[3] = test system: Hep3B cells; test: Cancer cell viability assay (CellTiter-Glo 2.0), Hep3B; assay type: cell-based, Human; conditions: 72 hours compound treatment
Procedure: as §1

Sequence of CDK9/CyclinT (P50750 whole entry): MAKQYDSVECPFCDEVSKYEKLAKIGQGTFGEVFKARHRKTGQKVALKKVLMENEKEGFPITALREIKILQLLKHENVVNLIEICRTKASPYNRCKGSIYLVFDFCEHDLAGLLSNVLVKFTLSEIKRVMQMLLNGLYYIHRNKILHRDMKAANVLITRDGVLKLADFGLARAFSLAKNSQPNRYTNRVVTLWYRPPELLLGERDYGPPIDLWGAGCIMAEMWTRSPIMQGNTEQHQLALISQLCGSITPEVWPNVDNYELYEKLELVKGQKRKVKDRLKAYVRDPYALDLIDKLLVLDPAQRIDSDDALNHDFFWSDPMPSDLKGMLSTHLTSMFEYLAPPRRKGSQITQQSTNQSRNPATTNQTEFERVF
Sequence of CDK9/CyclinT (O60563 whole entry partner): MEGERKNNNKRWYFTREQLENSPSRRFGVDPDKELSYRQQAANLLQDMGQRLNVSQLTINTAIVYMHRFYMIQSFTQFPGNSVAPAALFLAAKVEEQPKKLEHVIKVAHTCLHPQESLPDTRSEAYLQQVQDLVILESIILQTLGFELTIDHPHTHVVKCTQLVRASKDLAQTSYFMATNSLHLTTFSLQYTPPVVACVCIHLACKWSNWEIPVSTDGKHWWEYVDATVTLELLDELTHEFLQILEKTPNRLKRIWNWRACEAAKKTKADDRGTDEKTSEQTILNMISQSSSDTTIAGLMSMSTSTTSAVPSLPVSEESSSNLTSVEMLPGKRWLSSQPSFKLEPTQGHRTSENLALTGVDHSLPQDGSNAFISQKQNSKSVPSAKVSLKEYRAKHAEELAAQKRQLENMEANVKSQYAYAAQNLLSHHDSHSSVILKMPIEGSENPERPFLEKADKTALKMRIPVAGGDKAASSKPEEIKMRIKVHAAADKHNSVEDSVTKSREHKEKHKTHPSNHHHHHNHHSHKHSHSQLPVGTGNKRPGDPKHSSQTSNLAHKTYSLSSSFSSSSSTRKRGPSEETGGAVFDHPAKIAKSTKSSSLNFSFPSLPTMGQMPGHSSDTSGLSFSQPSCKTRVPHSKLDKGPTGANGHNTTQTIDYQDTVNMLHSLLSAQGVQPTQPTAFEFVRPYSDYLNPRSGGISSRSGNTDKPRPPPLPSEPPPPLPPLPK

IC50 [1] [µM]	EC50 [2] [µM]	EC50 [3] [µM]	Structure (SMILES)
> 0.01	> 1		C[C@H](Cc1nnn[nH]1)NC1CCC(Nc2cc(-c3cccc(NCC4(C#N)CCOCC4)n3)c(Cl)cn2)CC1 (stereo partly drawn) [Compound 12, 4-(((2′-(((1R,4R)-4-(((R)-1-(1H-tetrazol-5-yl)propan-2-yl)amino)cyclohexyl)amino)-5′-chloro-[2,4′-bipyridin]-6-yl)amino)methyl)tetrahydro-2H-pyran-4-carbonitrile]
> 0.01	> 1		C[C@@H](Cc1nnn[nH]1)NC1CCC(Nc2cc(-c3cccc(NCC4(C#N)CCOCC4)n3)c(Cl)cn2)CC1 (stereo partly drawn) [Compound 13, 4-(((2′-(((1S,4R)-4-(((S)-1-(1H-tetrazol-5-yl)propan-2-yl)amino)cyclohexyl)amino)-5′-chloro-[2,4′-bipyridin]-6-yl)amino)methyl)tetrahydro-2H-pyran-4-carbonitrile]
< 0.0025	> 1	0.5 to 1	CCOC(=O)O[C@H](C)n1nnc(COC[C@@H](C)N[C@H]2CC[C@H](Nc3cc(-c4cccc(NCC5(C#N)CCOCC5)n4)c(Cl)cn3)CC2)n1 [Compound 21, (R)-1-(5-(((R)-2-(((1r,4R)-4-((5′-chloro-6-(((4-cyanotetrahydro-2H-pyran-4-yl)methyl)amino)-[2,4′-bipyridin]-2′-yl)amino)cyclohexyl)amino)propoxy)methyl)-2H-tetrazol-2-yl)ethyl ethyl carbonate]
0.0025 to 0.005	> 1	0.5 to 1	CCOC(=O)O[C@H](C)n1nnc(COC[C@H](C)N[C@H]2CC[C@H](Nc3cc(-c4cccc(NCC5(C#N)CCOCC5)n4)c(Cl)cn3)CC2)n1 [Compound 22, (R)-1-(5-(((S)-2-(((1r,4S)-4-((5′-chloro-6-(((4-cyanotetrahydro-2H-pyran-4-yl)methyl)amino)-[2,4′-bipyridin]-2′-yl)amino)cyclohexyl)amino)propoxy)methyl)-2H-tetrazol-2-yl)ethyl ethyl carbonate]
< 0.0025	> 1	> 1	CCOC(=O)O[C@H](C)n1nnnc1COC[C@@H](C)N[C@H]1CC[C@H](Nc2cc(-c3cccc(NCC4(C#N)CCOCC4)n3)c(Cl)cn2)CC1 [Compound 27, (R)-1-(5-(((R)-2-(((1r,4R)-4-((5′-chloro-6-(((4-cyanotetrahydro-2H-pyran-4-yl)methyl)amino)-[2,4′-bipyridin]-2′-yl)amino)cyclohexyl)amino)propoxy)methyl)-1H-tetrazol-1-yl)ethyl ethyl carbonate]
> 0.01	> 1	> 1	CCOC(=O)O[C@H](C)n1nnnc1COC[C@H](C)N[C@H]1CC[C@H](Nc2cc(-c3cccc(NCC4(C#N)CCOCC4)n3)c(Cl)cn2)CC1 [Compound 28, (R)-1-(5-(((S)-2-(((1r,4S)-4-((5′-chloro-6-(((4-cyanotetrahydro-2H-pyran-4-yl)methyl)amino)-[2,4′-bipyridin]-2′-yl)amino)cyclohexyl)amino)propoxy)methyl)-1H-tetrazol-1-yl)ethyl ethyl carbonate]
< 0.0025	0.5 to 1	> 1	CCOC(=O)O[C@@H](C)n1nnnc1COC[C@@H](C)N[C@H]1CC[C@H](Nc2cc(-c3cccc(NCC4(C#N)CCOCC4)n3)c(Cl)cn2)CC1 [Compound 30, (S)-1-(5-(((R)-2-(((1r,4R)-4-((5′-chloro-6-(((4-cyanotetrahydro-2H-pyran-4-yl)methyl)amino)-[2,4′-bipyridin]-2′-yl)amino)cyclohexyl)amino)propoxy)methyl)-1H-tetrazol-1-yl)ethyl ethyl carbonate]
< 0.0025	> 1	> 1	CCOC(=O)O[C@@H](C)n1nnnc1COC[C@H](C)N[C@H]1CC[C@H](Nc2cc(-c3cccc(NCC4(C#N)CCOCC4)n3)c(Cl)cn2)CC1 [Compound 31, (S)-1-(5-(((S)-2-(((1r,4S)-4-((5′-chloro-6-(((4-cyanotetrahydro-2H-pyran-4-yl)methyl)amino)-[2,4′-bipyridin]-2′-yl)amino)cyclohexyl)amino)propoxy)methyl)-1H-tetrazol-1-yl)ethyl ethyl carbonate]
< 0.0025	0.1 to 0.5	0.5 to 1	C[C@H](COCc1nnnn1C)N[C@H]1CC[C@H](Nc2cc(-c3cccc(NCC4(C#N)CCOCC4)n3)c(Cl)cn2)CC1 [Compound 36, 4-(((5′-chloro-2′-(((1R,4r)-4-(((R)-1-((1-methyl-1H-tetrazol-5-yl)methoxy)propan-2-yl)amino)cyclohexyl)amino)-[2,4′-bipyridin]-6-yl)amino)methyl)tetrahydro-2H-pyran-4-carbonitrile]
< 0.0025	0.1 to 0.5	0.1 to 0.5	C[C@@H](COCc1nnnn1C)N[C@H]1CC[C@H](Nc2cc(-c3cccc(NCC4(C#N)CCOCC4)n3)c(Cl)cn2)CC1 [Compound 37, 4-(((5′-chloro-2′-(((1S,4r)-4-(((S)-1-((1-methyl-1H-tetrazol-5-yl)methoxy)propan-2-yl)amino)cyclohexyl)amino)-[2,4′-bipyridin]-6-yl)amino)methyl)tetrahydro-2H-pyran-4-carbonitrile]
0.005 to 0.01	< 0.1	0.1 to 0.5	CC(COCCNS(=O)(=O)C(F)F)NC1CCC(Nc2cc(-c3cccc(NCC4(C#N)CCOCC4)n3)c(Cl)cn2)CC1 (centres unmarked) [Compound 41, N-(2-(2-(((1r,4r)-4-((5′-chloro-6-(((4-cyanotetrahydro-2H-pyran-4-yl)methyl)amino)-[2,4′-bipyridin]-2′-yl)amino)cyclohexyl)amino)propoxy)ethyl)-1,1-difluoromethanesulfonamide]
0.0025 to 0.005			COC[C@@H](C)NC1CCC(Nc2cc(-c3cccc(NCC4(C#N)CCOCC4)n3)c(Cl)cn2)CC1 (some centres unmarked) [NVP-2, reference compound]

Structure (SMILES)	IC50 [1] [µM]	EC50 [2] [µM]	EC50 [3] [µM]
CCOC(=O)O[C@@H](C)n1nnc(COC[C@@H](C)N[C@H]2CC[C@H](Nc3cc(-c4cccc(NCC5(C#N)CCOCC5)n4)c(Cl)cn3)CC2)n1 [Compound 24, (S)-1-(5-(((R)-2-(((1r,4R)-4-((5′-chloro-6-(((4-cyanotetrahydro-2H-pyran-4-yl)methyl)amino)-[2,4′-bipyridin]-2′-yl)amino)cyclohexyl)amino)propoxy)methyl)-2H-tetrazol-2-yl)ethyl ethyl carbonate]	> 0.01	> 1	> 1
CCOC(=O)O[C@@H](C)n1nnc(COC[C@H](C)N[C@H]2CC[C@H](Nc3cc(-c4cccc(NCC5(C#N)CCOCC5)n4)c(Cl)cn3)CC2)n1 [Compound 25, (S)-1-(5-(((S)-2-(((1r,4S)-4-((5′-chloro-6-(((4-cyanotetrahydro-2H-pyran-4-yl)methyl)amino)-[2,4′-bipyridin]-2′-yl)amino)cyclohexyl)amino)propoxy)methyl)-2H-tetrazol-2-yl)ethyl ethyl carbonate]	> 0.01	> 1	> 1
C[C@@H](COCc1nnn(C)n1)N[C@H]1CC[C@H](Nc2cc(-c3cccc(NCC4(C#N)CCOCC4)n3)c(Cl)cn2)CC1 [Compound 34, 4-(((5′-chloro-2′-(((1S,4r)-4-(((S)-1-((2-methyl-2H-tetrazol-5-yl)methoxy)propan-2-yl)amino)cyclohexyl)amino)-[2,4′-bipyridin]-6-yl)amino)methyl)tetrahydro-2H-pyran-4-carbonitrile]	> 0.01	< 0.1	0.1 to 0.5
